According to US9187458B2, “Cyanoquinoline derivatives” (Tianjin Hemay Bio-Tech Co., LTD., priority 2010, dated 2015):

Test system: BT-474 cells
Test: BT-474 Cell Growth Inhibition Test (SRB Assay)
Format: cell-based, human
Conditions: Homo sapiens, 70 h incubation
Protocol: BT-474 Cell Growth Inhibition Test (SRB Assay)
1. Cell strains: BT-474 (human breast tumor cell strains);
2. SRB: available from Sigmaaldrich, goods number: S9012, lot number: 047K3751. SRB was reserved at the room temperature. 0.4% (w/v) of working solution was formulated with 1% of glacial acetic acid. The solution was reserved at the temperature of 4° C.; anti-tumor compounds; DMSO.
Culture medium (90% EMEM+10% FBS+0.1 mM NEAA, reserved at 4° C.);
1. A plate (10 cm) of cells in logarithmic growth phase normally cultured was collected. The culture solution was sucked out. The plate was washed with 5 mL of PBS 1-2 times;
2. PBS was sucked out, and […] of 0.25% pancreatin was added to infiltrate the cells for 30 s;
3. The pancreatin was sucked out. The culture plate was pleaced in an incubator. Digestion was carried out for about 5 min at 37° C.;
4. 3 mL of complete culture solution was added to the culture plate to stop the digestion. The cells were carefully scoured with micropipette (1 ml) to give a uniform single cell suspension;
5. Cell suspension was counted. The suspension was diluted to 1×10^5/ml. The resulting suspension was developed uniformly on a plate. The plate was incubated under 5% CO2 at 37° C. overnight. In day 2, 80 μL of complete culture medium was added in each well and then 20 μL of culture solution comprising a compound was added. The mixture was incubated for 70 h under 5% CO2 at 37° C.
6. The culture solution was sucked out. 100 uL of TCA fixed cells which were diluted to 10% were added to each well. The plate was kept in a refrigerator for 1 h at 4° C.
7. TCA stationary liquid was sucked out. Each well was washed with 150 μL of ddH2O five times;
8. After the stationary liquid was cleansed, the plate was dried in the air at the room temperature;
9. 60 μL of SRB staining solution was added in each well. The well was stained for 15 min at the room temperature;
10. The SRB staining solution was sucked out. Each well was washed with 150 μL of 1% glacial acetic acid five times;
11. After the SRB staining solution was cleansed, the plate was dried in the air at the room temperature;
12. 100 μL of 10 mM Tris was added in each well. The plate was vibrated to dissolve out SRB;
13. OD values were determined at 570 nM.
(§1) 1. Calculation of Relative Inhibition Ratio The inhibition ratio of a compound on cell growth=(PC−n)/(PC−NC)×100%
IC50: Concentration of a compound where inhibition ratio was 50%. IC50 values were fitted with Origin7.5.

Work on `C#Cc1cccc(Nc2c(C#N)cnc3cc(O[C@H]4CCOC4)c(NC(=O)/C=C/CN(CCOC)CCOC)cc23)c1` [Example 191, (S,E)-N-(3-CYANO-4-(3-ETHYNYLPHENYLAMINO)-7-(TETRAHYDROFURAN-3-YL-OXY)QUINOLIN-6-YL)-4-(DIMETHOXYETHYLAMINO)-BUT-2-ENAMIDE] yielded an IC50 of 390 nM.

Same assay, conditions: Homo sapiens, BT-474, 70 h, compound 1 μM, 70 h incubation, read-out: Growth Inhibition Ratio (%)

Compared with `CN(C)C/C=C/C(=O)Nc1cc2c(Nc3ccc(F)c(Cl)c3)c(C#N)cnc2cc1OC1CCOC1` (mixture of isomers) [Example 176, (E/Z)-N-(4-(3-CHLORO-4-FLUOROPHENYLAMINO)-3-CYANO-7-(TETRAHYDROFURAN-3-YL-OXY)QUINOLIN-6-YL)-4-(DIMETHYLAMINO)-BUT-2-ENAMIDE], `CCN(CC)C/C=C/C(=O)Nc1cc2c(Nc3ccc(F)c(Cl)c3)c(C#N)cnc2cc1O[C@H]1CCOC1` [Example 168, (S,E)-N-(4-(3-CHLORO-4-FLUOROPHENYLAMINO)-3-CYANO-7-(TETRAHYDROFURAN-3-YL-OXY)QUINOLIN-6-YL)-4-(DIETHYLAMINO)-BUT-2-ENAMIDE] is lower in inhibition at 1 µM: 89% for the first, 86% for the second.

First: C#Cc1cccc(Nc2c(C#N)cnc3cc(O[C@H]4CCOC4)c(NC(=O)/C=C/CNCc4ccccc4)cc23)c1 [Example 147, (S,E)-N-(3-CYANO-4-(3-ETHYNYLPHENYLAMINO)-7-(TETRAHYDROFURAN-3-YL-OXY)QUINOLIN-6-YL)-4-(BENZYLAMINO)-BUT-2-ENAMIDE]
Second: CN(C)C/C=C/C(=O)Nc1cc2c(Nc3cccc(Br)c3)c(C#N)cnc2cc1O[C@H]1CCOC1 [Example 156, (S,E)-N-(4-(3-BROMOPHENYLAMINO)-3-CYANO-7-(TETRAHYDROFURAN-3-YL-OXY)QUINOLIN-6-YL)-4-(DIMETHYLAMINO)-BUT-2-ENAMIDE]
The inhibition at 1 µM of the first is higher: 75% for the first, 70% for the second.

`CN(C)C/C=C/C(=O)Nc1cc2c(Nc3ccc(OCc4ccccc4C#N)c(Cl)c3)c(C#N)cnc2cc1O[C@H]1CCOC1` [Example 162, (S,E)-N-(4-(4-(2-CYANOBENZYLOXY)-3-CHLOROPHENYLAMINO)-3-CYANO-7-(TETRAHYDROFURAN-3-YL-OXY)QUINOLIN-6-YL)-4-(DIMETHYLAMINO)-BUT-2-ENAMIDE] and `COCCN(C)C/C=C/C(=O)Nc1cc2c(Nc3ccc(OCc4ccccn4)c(Cl)c3)c(C#N)cnc2cc1O[C@H]1CCOC1` [Example 201, (S,E)-N-(3-CYANO-4-(3-CHLORO-4-(PYRIDIN-2-YL-METHOXY)PHENYLAMINO)-7-(TETRAHYDROFURAN-3-YL-OXY)QUINOLIN-6-YL)-4-(N-METHYLMETHOXY ETHYLAMINO)-BUT-2-ENAMIDE] are the same in inhibition at 1 µM: 80% for the first, 80% for the second.

Going from `N#Cc1cnc2cc(O[C@H]3CCOC3)c(NC(=O)/C=C/CN3CCCCC3)cc2c1Nc1ccc(F)c(Cl)c1` [Example 169, (S,E)-N-(4-(3-CHLORO-4-FLUOROPHENYLAMINO)-3-CYANO-7-(TETRAHYDROFURAN-3-YL-OXY)QUINOLIN-6-YL)-4-(PIPERIDIN-1-YL)-BUT-2-ENAMIDE] to `N#Cc1cnc2cc(O[C@H]3CCOC3)c(NC(=O)/C=C/CN3CCCCC3)cc2c1Nc1ccc(OCc2cccc(F)c2)c(Cl)c1` [Example 172, (S,E)-N-(4-(4-(3-FLUOROBENZYLOXY)-3-CHLOROPHENYLAMINO)-3-CYANO-7-(TETRAHYDROFURAN-3-YL-OXY)QUINOLIN-6-YL)-4-(PIPERIDIN-1-YL)-BUT-2-ENAMIDE], the inhibition at 1 µM falls from 80% to 62%.

First: CCN(CC)C/C=C/C(=O)Nc1cc2c(Nc3ccc(OCc4cccc(F)c4)c(Cl)c3)c(C#N)cnc2cc1O[C@H]1CCOC1 [Example 171, (S,E)-N-(4-(4-(3-FLUOROBENZYLOXY)-3-CHLOROPHENYLAMINO)-3-CYANO-7-(TETRAHYDROFURAN-3-YL-OXY)QUINOLIN-6-YL)-4-(DIETHYLAMINO)-BUT-2-ENAMIDE]
Second: CN(C/C=C/C(=O)Nc1cc2c(Nc3ccc(OCc4cccc(F)c4)c(Cl)c3)c(C#N)cnc2cc1O[C@H]1CCOC1)CCO [Example 198, (S,E)-N-(3-CYANO-4-(4-(3-FLUOROBENZYLOXY)-3-CHLOROPHENYLAMINO)-7-(TETRAHYDROFURAN-3-YL-OXY)QUINOLIN-6-YL)-4-(N-METHYLETHANOLAMINO)-BUT-2-ENAMIDE]
The inhibition at 1 µM of the first is higher: 84% for the first, 78% for the second.

Going from `N#Cc1cnc2cc(O[C@H]3CCOC3)c(NC(=O)/C=C/CN3CCOCC3)cc2c1Nc1ccc(OCc2cccc(F)c2)c(Cl)c1` [Example 173, (S,E)-N-(4-(4-(3-FLUOROBENZYLOXY)-3-CHLOROPHENYLAMINO)-3-CYANO-7-(TETRAHYDROFURAN-3-YL-OXY)QUINOLIN-6-YL)-4-(MORPHOLIN-4-YL)-BUT-2-ENAMIDE] to `COCCN(C/C=C/C(=O)Nc1cc2c(Nc3ccc(OCc4ccccn4)c(Cl)c3)c(C#N)cnc2cc1O[C@H]1CCOC1)CCOC` [Example 203], the inhibition at 1 µM rises from 67% to 82%.

Compared with `N#Cc1cnc2cc(O[C@H]3CCOC3)c(NC(=O)/C=C/CN(CCO)CCO)cc2c1Nc1ccc(F)c(Cl)c1` [Example 192, (S,E)-N-(3-CYANO-4-(3-CHLORO-4-FLUORO-PHENYLAMINO)-7-(TETRAHYDROFURAN-3-YL-OXY)QUINOLIN-6-YL)-4-(DIETHANOLAMINO)-BUT-2-ENAMIDE], `N#Cc1cnc2cc(O[C@H]3CCOC3)c(NC(=O)/C=C/CNCCCCCCO)cc2c1Nc1ccc(F)c(Cl)c1` [Example 205, (S,E)-N-(3-CYANO-4-(3-CHLORO-4-FLUORO-PHENYLAMINO)-7-(TETRAHYDROFURAN-3-YL-OXY)QUINOLIN-6-YL)-4-(6-HYDROXYHEXYLAMINO)-BUT-2-ENAMIDE] is lower in inhibition at 1 µM: 85% for the first, 75% for the second.

Same assay, conditions: compound 1 μM, 70 h incubation

First: CCN(CC)C/C=C/C(=O)Nc1cc2c(Nc3ccc(OCc4ccccn4)c(Cl)c3)c(C#N)cnc2cc1O[C@H]1CCOC1 [Example 184, (S,E/Z)-N-(4-(3-CHLORO-4-(PYRIDIN-2-YL-METHOXY)PHENYLAMINO)-3-CYANO-7-(TETRAHYDROFURAN-3-YL-OXY)QUINOLIN-6-YL)-4-(DIETHYLAMINO)-BUT-2-ENAMIDE]
Second: N#Cc1cnc2cc(O[C@H]3CCOC3)c(NC(=O)/C=C/CN3CCOCC3)cc2c1Nc1ccc(OCc2ccccn2)c(Cl)c1 [Example 186, (S,E/Z)-N-(4-(3-CHLORO-4-(PYRIDIN-2-YL-METHOXY)PHENYLAMINO)-3-CYANO-7-(TETRAHYDROFURAN-3-YL-OXY)QUINOLIN-6-YL)-4-(MORPHOLIN-4-YL)-BUT-2-ENAMIDE]
The “Growth Inhibition Ratio (%)” value of the first is higher: 83% for the first, 80% for the second.

Test system: A431 cells
Test: A431 Cell Growth Inhibition Test (MTT Assay)
Format: cell-based, human
Conditions: Homo sapiens, A-431, 68 h, compound 1 μM, 68 h incubation, read-out: Growth Inhibition Ratio (%)
Protocol: A431 Cell Growth Inhibition Test (MTT Assay)
1. Cell strains: A431 (human epithelial […] cell strains);
Culture medium: 45% DMEM, 45% F12+10% FBS;
1. A plate (10 cm) of cells in logarithmic growth phase normally cultured was collected;
2. The culture solution was sucked out. The plate was washed with 5 ml of PBS 1-2 times;
3. PBS was sucked out, and 2 ml of 0.25% pancreatin was added to infiltrate the cells for 1 min;
4. The pancreatin was sucked out, and the culture plate was placed in an incubator. Digestion was carried out for about 15 min at 37° C.;
5. 4 ml of complete culture solution was added in the culture plate to stop the digestion. The cells were carefully scoured with micropipette (1 ml) to give a uniform cell suspension. The suspension was implanted into a 96-well cell culture plate by 2500 cells/100 μl per well. The culture plate was incubated overnight under 5% CO2 at 37° C. In day 2, 100 μl of culture solution comprising the compound was added in each well, and further incubated for 68 h under 5% CO2 at 37° C.
6. The culture solution was sucked out;
7. 100 μl of serum-free culture solution containing 0.5 mg/ml MTT was added in each well, and incubated for 4 h;
8. The culture solution was carefully sucked out;
9. 100 μl of DMSO was added into each well and vibrated to dissolve;
10. OD values were determined at 490 nM.
as §1
IC50: concentration of a compound where inhibition ratio was 50%. IC50 values were fitted with Origin7.5.

Going from `CN(C)C/C=C/C(=O)Nc1cc2c(Nc3ccc(F)c(Cl)c3)c(C#N)cnc2cc1OC1CCOC1` (mixture of isomers) [Example 176, (E/Z)-N-(4-(3-CHLORO-4-FLUOROPHENYLAMINO)-3-CYANO-7-(TETRAHYDROFURAN-3-YL-OXY)QUINOLIN-6-YL)-4-(DIMETHYLAMINO)-BUT-2-ENAMIDE] to `CN(C)C/C=C/C(=O)Nc1cc2c(Nc3ccc(OCc4ccccc4F)c(Cl)c3)c(C#N)cnc2cc1O[C@H]1CCOC1` [Example 157, (S,E)-N-(4-(4-(2-FLUOROBENZYLOXY)-3-CHLOROPHENYLAMINO)-3-CYANO-7-(TETRAHYDROFURAN-3-YL-OXY)QUINOLIN-6-YL)-4-(DIMETHYLAMINO)-BUT-2-ENAMIDE], the inhibition at 1 µM falls from 79% to 72%.

Going from `CN(C)C/C=C/C(=O)Nc1cc2c(Nc3ccc(OCc4ccccc4)cc3)c(C#N)cnc2cc1O[C@H]1CCOC1` [Example 155, (S,E)-N-(4-(4-(BENZYLOXY)PHENYLAMINO)-3-CYANO-7-(TETRAHYDROFURAN-3-YL-OXY)QUINOLIN-6-YL)-4-(DIMETHYLAMINO)-BUT-2-ENAMIDE] to `N#Cc1cnc2cc(O[C@H]3CCOC3)c(NC(=O)/C=C/CN3CCCCC3)cc2c1Nc1ccc(OCc2ccccn2)c(Cl)c1` [Example 185, (S,E/Z)-N-(4-(3-CHLORO-4-(PYRIDIN-2-YL-METHOXY)PHENYLAMINO)-3-CYANO-7-(TETRAHYDROFURAN-3-YL-OXY)QUINOLIN-6-YL)-4-(PIPERIDIN-1-YL)-BUT-2-ENAMIDE], the inhibition at 1 µM falls from 82% to 70%.
